Source: US9132130B2, “Purine derivative and antitumor agent using same” (ZENYAKU KOGYO KABUSHIKI KAISHA, priority 2009, dated 2015)

Columns and labels:
[1] = test system: human lung cancer A549; experiment: in vivo antitumor activity, nude mice transplanted with human lung cancer A549; design: species or system BALB/c-nu/nu mice; conditions: 400 mg/kg intraperitoneally daily day 0 to day 13 (12 times), tumor volume at day 14
Method: Tumor tissue fragments of human lung cancer A549 (3 mm×3 mm×3 mm) were transplanted subcutaneously into the chests of six-week-old female BALB/c-nu/nu mice, and sample administration started when the tumor volume reached at least approximately 100 mm^3 (day 0). Compound 2 and Compound 7 were suspended in a 1% hydroxypropylcellulose (HPC [L]) solution using an agate mortar. 400 mg/kg of Compound 2 was orally administered daily from day 0 to day 13 (excluding day 3 and day 10, a total of 12 times). 400 mg/kg of Compound 7 was intraperitoneally administered daily from day 0 to day 13 (excluding day 4 and day 11, a total of 12 times). Tumor diameters were measured to calculate tumor volume (½×long diameter×short diameter×short diameter), and the tumor volume after 14 days (at day 14) from the start of sample administration was divided by the tumor volume at the start of the administration to calculate relative tumor growth rate. The percentage of the relative tumor growth rate of the control group with respect to the relative tumor growth rate of the group administered with Compound 2 or Compound 7 was taken as T/C (%).

[2] = test system: B16F10 cells (mouse melanoma [malignant melanoma] cells); experiment: in vitro antitumor activity test, B16F10 cells, XTT colorimetry; type: cell-based; conditions: B16-F10, cultured 72 hours
Summary of the method: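 B16F10 mouse melanoma cells were seeded from a 1×10^4 cells/ml suspension and allowed to adhere for 24 h. Compounds in DMSO were diluted in RPMI 1640 with 10% FBS to 2.0×10^−9 to 2.0×10^−4 M and incubated 72 h at 37° C, 5% CO2. XTT colorimetry gave GI50 (μM).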

[3] = test system: MCF-7 cells (human breast cancer cells); experiment: antitumor activity against breast cancer cells, cell counting; type: cell-based; conditions: MCF7; MCF-7 human breast cancer cells, cultured 72 hours, cell counter
Method: MCF-7 cells (human breast cancer cells) subcultured in a culture medium composed of a MEM medium added with 10% fetal bovine serum, 25 mM HEPES and 0.1 mg/ml kanamycin under the conditions of 37° C. and 5% carbon dioxide gas were made into single floating cells by treating with trypsin/EDTA, and a single cell suspension of 4×10^4 cells per 1 ml was prepared using the MEM medium (added with 10% fetal bovine serum, 25 mM HEPES and 0.1 mg/ml kanamycin). After dissolving the test substances (Compound 2 and Compound 7) in DMSO, they were diluted with the MEM medium (added with 10% fetal bovine serum, 25 mM HEPES and 0.1 mg/ml kanamycin) and prepared so that the concentrations were 6.4×10^−8 to 2.0×10^−5 M.
0.1 ml of the cell suspension was placed into each well of a 96-well microplate, cultured for 24 hours to allow the cells to adhere to the microplate, then 0.1 ml of the sample solutions were added, and cultured for 72 hours at 37° C. in 5% carbon dioxide gas.
Afterwards, the cells in each well were made single floating cells by treating with trypsin/EDTA, and the number of cells was counted using a cell counter to obtain the growth inhibition rate at various sample concentrations and calculate the concentrations at which growth was inhibited by 50% (GI50 values [μM]).

[4] = test system: WiDr cells (human colon cancer cells); experiment: in vitro antitumor activity test, WiDr cells, XTT colorimetry; type: cell-based; conditions: cultured 72 hours
Summary of the method: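 Human colon cancer cells in MEM/10% FBS were seeded 3×10^4 cells/ml and allowed to adhere for 24 h, then exposed to compounds prepared at 2.0×10^−9 to 2.0×10^−4 M in RPMI 1640 for 72 h at 37° C, 5% CO2. Growth was read by XTT colorimetry and GI50 (μM) calculated.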

[5] = test system: PC-3 cells (human prostate cancer cells); experiment: in vitro antitumor activity test, PC-3 cells, XTT colorimetry; type: cell-based; conditions: PC-3 human prostate cancer cells, cultured 72 hours
Summary of the method: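 PC-3 human prostate cancer cells, seeded at 2×10^4 cells/ml and allowed to adhere for 24 h, were exposed 72 h at 37° C, 5% CO2 to compound diluted in RPMI 1640 with 10% FBS to 2.0×10^−9 to 2.0×10^−4 M (pre-addition solutions). Growth was measured by XTT colorimetry and GI50 (μM) calculated.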

[6] = test system: P388 cells (mouse leukemia cells); experiment: in vitro antitumor activity test, P388 cells, XTT colorimetry; type: cell-based; conditions: cultured 72 hours
Summary of the method: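 Cells from DBA/2 mouse ascites, in RPMI 1640 with 10% FBS and 25 mM HEPES, seeded from a 4×10^4 cells/ml suspension. Equal volume added of compound solutions prepared at 2.0×10^−9 to 2.0×10^−4 M (pre-mixing). After 72 h at 37° C, 5% CO2, growth read by XTT; GI50 (μM) is the concentration giving 50% growth inhibition.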

[7] = test system: A549 cells (human lung cancer cells); experiment: in vitro antitumor activity test, A549 cells, XTT colorimetry; type: cell-based; conditions: cultured 72 hours
Summary of the method: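 Cells seeded at 2×10^4 cells/ml in MEM + 10% FBS, 25 mM HEPES, kanamycin, allowed to adhere 24 h, then exposed to compounds (DMSO stocks diluted in RPMI 1640; prepared at 2.0×10^−9 to 2.0×10^−4 M) for 72 h at 37 °C, 5% CO2. Growth inhibition read by XTT colorimetry; GI50 (μM) calculated.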

Row | Structure (SMILES) | T/C [1] | GI50 [2] | GI50 [3] | GI50 [4] | GI50 [5] | GI50 [6] | GI50 [7]
1 | CCc1nc2c(N3CCN(N=O)CC3)nc(SCc3ccc(OC)cc3)nc2n1C [Compound 7, 8-ethyl-2-(4-methoxybenzylsulfanyl)-9-methyl-6-(4-nitrosopiperazin-1-yl)-9H-purine] | 55.4% | 0.34 µM | 0.13 µM | 0.25 µM | 0.14 µM | 0.12 µM | 0.13 µM
2 | CCc1nc2c(N3C=COCC3)nc(SCc3ccc(OC)cc3)nc2n1C [Compound 148, 6-(2,3-dihydro-[1,4]oxadin-4-yl)-8-ethyl-2-(4-methoxybenzylsulfanyl)-9-methyl-9H-purine] |  | 0.29 µM |  | 0.13 µM | 0.13 µM | 0.09 µM | 0.24 µM
3 | CCc1nc2c(N3C=COCC3)nc(SCc3ccc(OC)c(F)c3)nc2n1C [Compound 157, 6-(2,3-dihydro[1,4]oxadin-4-yl)-8-ethyl-2-(3-fluoro-4-methoxybenzylsulfanyl)-9-methyl-9H-purine] |  | 0.08 µM |  | 0.08 µM | 0.09 µM | 0.04 µM | 0.06 µM
4 | COc1ccc(CSc2nc(N(C)C)c3ncn(C)c3n2)cc1 [Compound 21, 6-dimethylamino-2-(4-methoxybenzylsulfanyl)-9-methyl-9H-purine] |  | 0.34 µM |  | 0.14 µM | 0.14 µM | 0.1 µM | 0.22 µM
5 | CCOc1ccc(CSc2nc(N3CCOCC3)c3nc(CC)n(CC)c3n2)cc1N [Compound 106, 2-(3-amino-4-ethoxybenzylsulfanyl)-8,9-diethyl-6-morpholino-9H-purine] |  | 0.3 µM |  | 0.29 µM | 0.95 µM | 0.2 µM | 0.14 µM
6 | CCc1nc2c(N3CCOCC3)nc(SC(c3ccccc3)c3ccccc3)nc2n1C [Compound 100, 2-benzhydrylsulfanyl-8-ethyl-9-methyl-6-morpholino-9H-purine] |  | 4.63 µM |  | 6.11 µM | 0.15 µM | 3.29 µM | 3.9 µM
7 | COc1ccc(CSc2nc(N3CC=CC3)c3ncn(C)c3n2)cc1 [Compound 130, 2-(4-methoxybenzylsulfanyl)-9-methyl-6-(3-pyrrolin-1-yl)-9H-purine] |  | 0.63 µM |  | 0.28 µM | 0.54 µM | 0.25 µM | 0.4 µM
8 | C/C=C/c1nc(SCc2ccc(OC)c([N+](=O)[O-])c2)nc2c1ncn2C [Compound 171, 2-(4-methoxy-3-nitrobenzylsulfanyl)-9-methyl-6-(1-trans-propenyl)-9H-purine] |  | 0.56 µM |  | 0.37 µM | 0.47 µM | 0.22 µM | 0.27 µM
9 | COc1ccc(CSc2nc(-n3cccc3)c3ncn(C)c3n2)cc1N [Compound 141, 2-(3-amino-4-methoxybenzylsulfanyl)-9-methyl-6-(1-pyrrolyl)-9H-purine] |  | 0.41 µM |  | 4.85 µM | 0.47 µM | 0.26 µM | 0.37 µM
10 | COc1ccc(CSc2nc(-n3ccnc3)c3ncn(C)c3n2)cc1 [Compound 110, 6-(imidazol-1-yl)-2-(4-methoxybenzylsulfanyl)-9-methyl-9H-purine] |  | 1.43 µM |  | 0.79 µM | 1.4 µM | 0.47 µM | 0.95 µM
11 | CCn1cnc2c(N3C=COCC3)nc(SCc3ccc(OC)c(N)c3)nc21 [Compound 151, 2-(3-amino-4-methoxybenzylsulfanyl)-6-(2,3-dihydro-[1,4]oxadin-4-yl)-9-ethyl-9H-purine] |  | 1.47 µM |  | 3.4 µM | 1.44 µM | 0.57 µM | 0.7 µM
12 | CCNc1nc(SCc2ccc(OC)c(C#N)c2)nc2c1ncn2C [Compound 89, 2-(3-cyano-4-methoxybenzylsulfanyl)-6-ethylamino-9-methyl-9H-purine] |  | 0.13 µM |  | 0.12 µM | 0.21 µM | 0.11 µM | 0.15 µM
13 | CCOc1ccc(CSc2nc(N3CCOCC3)c3nc(CC)n(C)c3n2)cc1F [Compound 116, 2-(4-ethoxy-3-fluorobenzylsulfanyl)-8-ethyl-9-methyl-6-morpholino-9H-purine] |  | 0.44 µM |  | 0.33 µM | 0.32 µM | 0.29 µM | 0.45 µM
14 | COc1ccc(CSc2nc(N3CC=CC3)c3ncn(C)c3n2)cc1[N+](=O)[O-] [Compound 142, 2-(4-methoxy-3-nitrobenzylsulfanyl)-9-methyl-6-(3-pyrrolin-1-yl)-9H-purine] |  | 0.19 µM |  | 1.15 µM | 0.1 µM | 0.05 µM | 0.08 µM
15 | COc1ccc(CSc2nc(-n3cccc3)c3ncn(C)c3n2)cc1 [Compound 109, 9-methyl-2-(4-methoxybenzylsulfanyl)-6-(1-pyrrolyl)-9H-purine] |  | 0.51 µM |  | 0.36 µM | 0.58 µM | 0.32 µM | 0.57 µM
16 | CCOc1ccc(CSc2nc(N3CCOCC3)c3ncn(C)c3n2)cc1 [Compound 99, 2-(4-ethoxybenzylsulfanyl)-9-methyl-6-morpholino-9H-purine] |  | 1.98 µM |  | 1.29 µM | 5.95 µM | 0.96 µM | 1.18 µM
17 | COc1ccc(CSc2nc(-c3c(C)noc3C)c3ncn(C)c3n2)cc1 [Compound 169, 6-(3,5-dimethylisoxazol-4-yl)-2-(4-methoxybenzylsulfanyl)-9-methyl-9H-purine] |  | 0.11 µM |  | 0.08 µM | 0.07 µM | < 0.04 µM | < 0.04 µM
18 | COc1ccc(CSc2nc(-c3ccco3)c3ncn(C)c3n2)cc1 [Compound 167, 6-(2-furyl)-2-(4-methoxybenzylsulfanyl)-9-methyl-9H-purine] |  | 2.47 µM |  | 1.75 µM | 1.8 µM | 1.87 µM | 1.49 µM
19 | CCOc1ccc(CSc2nc(N3CCOCC3)c3nc(CC)n(C)c3n2)cc1 [Compound 17, 2-(4-ethoxybenzylsulfanyl)-8-ethyl-9-methyl-6-morpholino-9H-purine] |  | 1.29 µM |  | 0.51 µM | 0.46 µM | 0.36 µM | 0.76 µM
